{"source": "paper PMC12638379", "about": "“An innovative approach to development of new pyrazolylquinolin-2-one hybrids as dual EGFR and BRAF^V600E inhibitors” (Molecular Diversity, 2025)", "test_system": "NCI 60 cancer cell lines", "experiment": "NCI anticancer screening over a panel of 60 cancer cells, single concentration 10 µM", "assay_type": "cell-based, human", "settings": "Homo sapiens, read-out: % Growth Inhibition (GI %)", "procedure,_shortened": "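Primary single-dose screen at 10 µM over the NCI panel of 60 human tumour cell lines (leukemia, CNS, lung, colon, kidney, ovary, breast, prostate). The standard NCI Developmental Therapeutics Program protocol was used.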", "note": "Like-named read-outs stand apart in the source and are kept apart here."}
{"smiles": "C/C(=N\\Nc1ccc(S(N)(=O)=O)cc1)c1cnn(-c2cc(=O)[nH]c3ccccc23)c1C", "note": "[Compound 4a, (E)-4-(2-(1-(5-methyl-1-(2-oxo-1,2-dihydroquinolin-4-yl)-1H-pyrazol-4-yl)ethylidene) hydrazineyl)benzenesulfonamide]", "values": [{"measurement": "inhibition at 10 µM", "setting": "786-0, Renal cancer 786-0, 10 μM", "result": 11.6, "unit": "%"}, {"measurement": "inhibition at 10 µM", "setting": "A549, Non-small cell lung cancer A549/ATCC, 10 μM", "result": "< 5", "unit": "%"}, {"measurement": "inhibition at 10 µM", "setting": "ACHN, Renal cancer ACHN, 10 μM", "result": "< 5", "unit": "%"}, {"measurement": "inhibition at 10 µM", "setting": "BT-549, Breast cancer BT-549, 10 μM", "result": 34.3, "unit": "%"}, {"measurement": "inhibition at 10 µM", "setting": "CAKI-1, Renal cancer CAKI-1, 10 μM", "result": 5.51, "unit": "%"}, {"measurement": "inhibition at 10 µM", "setting": "CCRF-CEM, Leukemia CCRF-CEM, 10 μM", "result": 7.82, "unit": "%"}, {"measurement": "inhibition at 10 µM", "setting": "COLO 205, Colon cancer COLO 205, 10 μM", "result": "< 5", "unit": "%"}, {"measurement": "inhibition at 10 µM", "setting": "DU-145, Prostate cancer DU-145, 10 μM", "result": "< 5", "unit": "%"}, {"measurement": "inhibition at 10 µM", "setting": "HCC 2998, Colon cancer HCC-2998, 10 μM", "result": "< 5", "unit": "%"}, {"measurement": "inhibition at 10 µM", "setting": "HCT-15, Colon cancer HCT-15, 10 μM", "result": "< 5", "unit": "%"}, {"measurement": "inhibition at 10 µM", "setting": "HCT-116, Colon cancer HCT-116, 10 μM", "result": "< 5", "unit": "%"}, {"measurement": "inhibition at 10 µM", "setting": "HL-60, Leukemia HL-60(TB), 10 μM", "result": "< 5", "unit": "%"}, {"measurement": "inhibition at 10 µM", "setting": "HOP-62, Non-small cell lung cancer HOP-62, 10 μM", "result": 7.49, "unit": "%"}, {"measurement": "inhibition at 10 µM", "setting": "HOP-92, Non-small cell lung cancer HOP-92, 10 μM", "result": "< 5", "unit": "%"}, {"measurement": "inhibition at 10 µM", "setting": "HT-29, Colon cancer HT29, 10 μM", "result": "< 5", "unit": "%"}, {"measurement": "inhibition at 10 µM", "setting": "Hs-578T, Breast cancer HS 578T, 10 μM", "result": 19.4, "unit": "%"}, {"measurement": "inhibition at 10 µM", "setting": "IGROV-1, Ovarian cancer IGROV1, 10 μM", "result": "< 5", "unit": "%"}, {"measurement": "inhibition at 10 µM", "setting": "K562, Leukemia K-562, 10 μM", "result": "< 5", "unit": "%"}, {"measurement": "inhibition at 10 µM", "setting": "KM12, Colon cancer KM12, 10 μM", "result": "< 5", "unit": "%"}, {"measurement": "inhibition at 10 µM", "setting": "LOX IMVI, Melanoma LOX IMVI, 10 μM", "result": 5.22, "unit": "%"}, {"measurement": "inhibition at 10 µM", "setting": "Leukemia SR, 10 μM", "result": 12.7, "unit": "%"}, {"measurement": "inhibition at 10 µM", "setting": "MCF7, Breast cancer MCF7, 10 μM", "result": 13.9, "unit": "%"}, {"measurement": "inhibition at 10 µM", "setting": "MDA-MB-231, Breast cancer MDA-MB-231/ATCC, 10 μM", "result": 17.7, "unit": "%"}, {"measurement": "inhibition at 10 µM", "setting": "MDA-MB-435, Melanoma MDA-MB-435, 10 μM", "result": "< 5", "unit": "%"}, {"measurement": "inhibition at 10 µM", "setting": "MDA-MB-468, Breast cancer MDA-MB-468, 10 μM", "result": 24.8, "unit": "%"}, {"measurement": "inhibition at 10 µM", "setting": "MOLT-4, Leukemia MOLT-4, 10 μM", "result": "< 5", "unit": "%"}, {"measurement": "inhibition at 10 µM", "setting": "Melanoma MALM-3M, 10 μM", "result": 30.1, "unit": "%"}, {"measurement": "inhibition at 10 µM", "setting": "NCI-H23, Non-small cell lung cancer NCI-H23, 10 μM", "result": "< 5", "unit": "%"}, {"measurement": "inhibition at 10 µM", "setting": "NCI-H226, Non-small cell lung cancer NCI-H226, 10 μM", "result": 14.7, "unit": "%"}, {"measurement": "inhibition at 10 µM", "setting": "NCI-H322M, Non-small cell lung cancer NCI-H322M, 10 μM", "result": 6.78, "unit": "%"}, {"measurement": "inhibition at 10 µM", "setting": "NCI-H460, Non-small cell lung cancer NCI-H460, 10 μM", "result": "< 5", "unit": "%"}, {"measurement": "inhibition at 10 µM", "setting": "NCI-H522, Non-small cell lung cancer NCI-H522, 10 μM", "result": 18.9, "unit": "%"}, {"measurement": "inhibition at 10 µM", "setting": "NCI/ADR-RES, Ovarian cancer NCI/ADR-RES, 10 μM", "result": "< 5", "unit": "%"}, {"measurement": "inhibition at 10 µM", "setting": "OVCAR-4, Ovarian cancer OVCAR-4, 10 μM", "result": 11.4, "unit": "%"}, {"measurement": "inhibition at 10 µM", "setting": "OVCAR-5, Ovarian cancer OVCAR-5, 10 μM", "result": "< 5", "unit": "%"}, {"measurement": "inhibition at 10 µM", "setting": "OVCAR-8, Ovarian cancer OVCAR-8, 10 μM", "result": "< 5", "unit": "%"}, {"measurement": "inhibition at 10 µM", "setting": "Prostate cancer PC-3, 10 μM", "result": 8.46, "unit": "%"}, {"measurement": "inhibition at 10 µM", "setting": "RPMI-8226, Leukemia RPMI-8226, 10 μM", "result": 11.2, "unit": "%"}, {"measurement": "inhibition at 10 µM", "setting": "RXF 393, Renal cancer RXF 393, 10 μM", "result": "< 5", "unit": "%"}, {"measurement": "inhibition at 10 µM", "setting": "SF-268, CNS Cancer SF-268, 10 μM", "result": 14, "unit": "%"}, {"measurement": "inhibition at 10 µM", "setting": "SF-295, CNS Cancer SF-295, 10 μM", "result": 5.93, "unit": "%"}, {"measurement": "inhibition at 10 µM", "setting": "SF-539, CNS Cancer SF-539, 10 μM", "result": 8.96, "unit": "%"}, {"measurement": "inhibition at 10 µM", "setting": "SK-MEL-2, Melanoma SK-MEL-2, 10 μM", "result": 12, "unit": "%"}, {"measurement": "inhibition at 10 µM", "setting": "SK-MEL-5, Melanoma SK-MEL-5, 10 μM", "result": 8.23, "unit": "%"}, {"measurement": "inhibition at 10 µM", "setting": "SK-MEL-28, Melanoma SK-MEL-28, 10 μM", "result": 6.43, "unit": "%"}, {"measurement": "inhibition at 10 µM", "setting": "SK-OV-3, Ovarian cancer SK-OV-3, 10 μM", "result": "< 5", "unit": "%"}, {"measurement": "inhibition at 10 µM", "setting": "SN12C, Renal cancer SN12C, 10 μM", "result": "< 5", "unit": "%"}, {"measurement": "inhibition at 10 µM", "setting": "SNB-19, CNS Cancer SNB-19, 10 μM", "result": 9.13, "unit": "%"}, {"measurement": "inhibition at 10 µM", "setting": "SNB-75, CNS Cancer SNB-75, 10 μM", "result": 10.1, "unit": "%"}, {"measurement": "inhibition at 10 µM", "setting": "SW-620, Colon cancer SW-620, 10 μM", "result": "< 5", "unit": "%"}, {"measurement": "inhibition at 10 µM", "setting": "T47D, Breast cancer T-47D, 10 μM", "result": 24.7, "unit": "%"}, {"measurement": "inhibition at 10 µM", "setting": "TK-10, Renal cancer TK-10, 10 μM", "result": "< 5", "unit": "%"}, {"measurement": "inhibition at 10 µM", "setting": "U-251, CNS Cancer U251, 10 μM", "result": 7.57, "unit": "%"}, {"measurement": "inhibition at 10 µM", "setting": "UACC-62, Melanoma UACC-62, 10 μM", "result": 8.54, "unit": "%"}, {"measurement": "inhibition at 10 µM", "setting": "UACC-257, Melanoma UACC-257, 10 μM", "result": "< 5", "unit": "%"}, {"measurement": "inhibition at 10 µM", "setting": "UO-31, Renal cancer UO-31, 10 μM", "result": 22.6, "unit": "%"}]}
